Data from paper PMC12481576, “Barbituric Acid Derivatives as Covalent Inhibitors of Leishmania braziliensis Dihydroorotate Dehydrogenase” (Journal of Medicinal Chemistry, 2025).
≈ marks a conversion by molar mass, not a printed value.

Experiment: Kinetic solubility assay in PBS pH 7.4
Format: physicochemical
Conditions: PBS pH 7.4, 200 μM test conc, 1% DMSO, 2 h at 25 °C
Procedure: The plate was incubated for 2 h at 25 °C. The precipitates on the incubation plate were removed by filtration and the filtrates were quantified by LC-MS/MS. Calibration curves were prepared for each compound by using 5–6 points. Samples were analyzed by UV–vis.

[1] = phosphate buffered saline, aqueous buffer, kinetic from dmso stock

Compound | solubility kinetic at 2 h [1] [µM] | solubility kinetic at 2 h [µM]
O=C(O)Cc1ccccc1Nc1c(Cl)cccc1Cl [Diclofenac Sodium, reference compound] | 200 | 
CC/C(=C(/CC)c1ccc(O)cc1)c1ccc(O)cc1 [Diethylstilbesterol, reference compound] |  | 9.98 (≈ 2.68 µg/mL)
O=C(CCCN1CCC(O)(c2ccc(Cl)cc2)CC1)c1ccc(F)cc1 [Haloperidol, reference compound] | 30.3 (≈ 11.4 µg/mL) | 
